Measured values published in the NIST ThermoML archive (doi:10.1021/je1012229).

Conditions: 101.33 kPa, Liquid, Vibrating tube method

CCCCn1cc[n+](C)c1.F[P-](F)(F)(F)(F)F [1-butyl-3-methylimidazolium hexafluorophosphate]
Conditions | mass density [kg/m3]
283.15 K | 1380.2
293.15 K | 1372
303.15 K | 1362.6
313.15 K | 1354.1
323.15 K | 1345.7
333.15 K | 1339.1
343.15 K | 1331.7
353.15 K | 1323.4
363.15 K | 1314.2
